Reference: patent publication US6495529B1 (Warner-Lambert Company, priority 1998, dated 2002)

Experiments:
α1-receptors = assay type: binding, dog; conditions: read-out: Alpha-1 Ki
Protocol: The lungs of mongrel dogs were separated from cartilaginous airways and major blood vessels, weighted, chopped and placed into 10 volumes of ice-cold buffered sucrose (50 mM Tris-HCl pH 7.4, 1 mM EGTA, 0.32 M Sucrose). The tissue was then homogenized in a Polytron tissue homogenizer. The homogenate was filtered through two layers of cheesecloth, and the filtrate was dounced three times using a Con-Turque Potter homogenizer. […] The supernatant was recentrifuged at 30,000×g for 30 min at 4° C. and the resulting pellet was washed and resuspended in 10 volumes of Tris buffer (50 mM Tris HCL, pH 7.4, 1 mM EGTA) and incubated at 37° C. for 30 min in a shaking water bath. The suspension was centrifuged at 4° C., at 30,000×g for 30 min and the resulting pellet washed in 10 volumes of Tris buffer. […] Protein concentration was then determined by the Lowry method and the final suspension was adjusted to 10 mg of protein/ml, aliquoted and stored at −90° C.
Nonspecific binding was determined for each concentration point in separate incubations, with 10 μM phentolamine. Each experimental point was determined in triplicate. […] All binding assay incubations were terminated by rapid dilution with 2 ml of ice-cold wash buffer (50 mM Tris-HCl, pH 7.4) and filtration through Whatman GF/B filters using Brandel receptor-binding harvester.
All data were analyzed with the aid of microcomputer nonlinear curve fitting programs (PRISM 2.0, Graphpad Software, San Diego Calif.).
The receptors resident in each of the three membrane preparations were evaluated by standard saturation analysis following the addition of increasing concentrations of the appropriate radioligand. […]

rats = test: Dosage that raised mean arterial pressure 10% in rat; assay type: in vivo
Swiss-Webster mice = test: Locomotor stimulant and depressant effects in mice; conditions: mice, i.p.
Protocol: Male Swiss-Webster mice (HSD ND4, Harlan Sprague Dawley, Houston, Tex.) aged 2-3 months were used in these studies. Each dose group consisted of 8 mice. The mice were housed 2 to 4 per cage in 30.4×22.9×15.2 cm clear polycarbonate cages with food and water available ad libitum for at least one week prior to locomotor activity testing. The colony was maintained at 23±1° C., on a normal light-dark cycle beginning at 0700 hr. All testing took place during the light portion of the light-dark cycle.
Horizontal (forward movement) locomotor activity was measured using a standardized, optical activity monitoring system [Model KXYZCM (16), Omnitech Electronics, Columbus, Ohio]. Activity was monitored in forty 40.5×40.5×30.5 cm clear acrylic chambers that where housed in sets of two within larger sound-attenuating chambers. A panel of 16 infrared beams and corresponding photodetectors were spaced 2 cm apart along the sides and 2.4 cm above the floor of each activity chamber. A 7.5-W incandescent light above each chamber provided dim illumination via a rheostat set to 20% of full scale. Fans provided an 80-dB ambient noise level within the chamber.
(+)-Amphetamine was used as a positive control. The total horizontal distance traversed (cm) was recorded at 10 minute intervals for a 2-hour session. Separate groups of 8 mice were assigned to each dose or saline group, and dose-effect testing continued for each compound until maximal stimulant or depressant effects could be estimated. A separate control group was tested along with each compound.
Using TableCurve 2D v2.03 (Jandel Scientific), the mean average total distance traversed (cm/10 min) for that period was fit to a 3-parameter logistic peak function of log10 dose (with the constant set to the mean of the saline group), and the maximum effect estimated from the resulting curve. The ED50 (dose producing ½ maximal stimulant activity) was estimated from a linear regression against log10 dose of the ascending portion of the dose-effect curve. The stimulant efficacy was the peak effect of the compound (cm/10 min) as estimated from the logistic peak function, minus the mean control distance traveled (cm/10 min), and was expressed for each stimulant compound as a ratio to the stimulant efficacy determined for (+)-amphetamine.
The mean average total distance traversed (cm/10 min) for that period were fit to a linear function of log10 dose of the descending portion of the dose-effect curve. […] Efficacy was the ratio of maximal depressant effect to maximum possible depression for each compound (mean average total distance of the control group minus the lowest mean total distance, expressed as a ratio to the control group total distance).
Time course data for each compound were considered in 2-way analyses of variance with dose as a between-group and time as a within-group factor. The dose-effect data were considered in 1-way analyses of variance, and planned individual comparisons were conduced between each dose and the saline control group. Interaction studies were considered in 2-way analyses of variance, with Pretreatment and Test dose as the factors.

[1] = tested on: New Zealand white rabbits; test: Intraocular pressure (IOP) after topical application to rabbit eye
mongrel dogs = test: Intravenous dose increasing mean arterial pressure 10% in anesthetized dogs; conditions: anesthetized dog, i.v.
[2] = tested on: New Zealand white rabbits; test: Pupil diameter / mydriasis after topical application to rabbit eye
Sprague Dawley rats = test: Nasal airway pressure in normal (non-histamine-challenged) rats; conditions: for Mean Decrease in Nasal Airway Pressure: i.v.
[3] = drug 1% topical, drug treated eye (T), 0.5 hr
[4] = drug 1% topical, drug treated eye (T), 1 hr
[5] = drug 1% topical, drug treated eye (T), 3 hr
[6] = drug 1% topical, drug treated eye (T), 5 hr
[7] = drug 1% topical, drug treated eye (T), −0.5 hr (pre-treatment)
[8] = drug 1% topical, drug treated eye (T), −1 hr (pre-treatment)
[9] = drug 1% topical, untreated contralateral eye (U), 0.5 hr
[10] = drug 1% topical, untreated contralateral eye (U), 1 hr
[11] = drug 1% topical, untreated contralateral eye (U), 3 hr
[12] = drug 1% topical, untreated contralateral eye (U), 5 hr
[13] = drug 1% topical, untreated contralateral eye (U), −0.5 hr (pre-treatment)
[14] = drug 1% topical, untreated contralateral eye (U), −1 hr (pre-treatment), mean ± S.E.
[15] = drug 2% topical, drug treated eye (T), 0.5 hr
[16] = drug 2% topical, drug treated eye (T), 1 hr
[17] = drug 2% topical, drug treated eye (T), 3 hr
[18] = drug 2% topical, drug treated eye (T), 5 hr
[19] = drug 2% topical, drug treated eye (T), −0.5 hr (pre-treatment)
[20] = drug 2% topical, drug treated eye (T), −1 hr (pre-treatment)
[21] = drug 2% topical, untreated contralateral eye (U), 0.5 hr
[22] = drug 2% topical, untreated contralateral eye (U), 1 hr
[23] = drug 2% topical, untreated contralateral eye (U), 3 hr
[24] = drug 2% topical, untreated contralateral eye (U), 5 hr
[25] = drug 2% topical, untreated contralateral eye (U), −0.5 hr (pre-treatment)
[26] = drug 2% topical, untreated contralateral eye (U), −1 hr (pre-treatment)

SMILES: CNC[C@H](O)c1cccc(O)c1 [(−)-phenylephrine]
- Ki (α1-receptors): 3 µM
- Dosage of Enantiomer that Raised Mean Arterial Pressure 10%, Rat (rats): 3 to 5 µg
- Depression Potency (ID50, dose resulting in ½ the maximal depressant effect) (Swiss-Webster mice): 2.3 mg/kg
- Depression Time (30-min period following injection in which the maximal depression occurred) (Swiss-Webster mice): 0 to 30 min
- Stimulation Time (30-min period following injection in which the maximal stimulant effect occurred) (Swiss-Webster mice): 60 to 90 min
- locomotor depressant effect (in words) (Swiss-Webster mice; 2-hour session): some locomotor depression
- locomotor stimulant effect (in words) (Swiss-Webster mice; 2-hour session): Little or no stimulant effects
- IOP [1, 3]: 24 ± 0.6 mmHg
- IOP [1, 4]: 24 ± 1.0 mmHg
- IOP [1, 5]: 23 ± 1.5 mmHg
- IOP [1, 6]: 21 ± 1.9 mmHg
- IOP [1, 7]: 16 ± 1.5 mmHg
- IOP [1, 8]: 20 ± 1.6 mmHg
- IOP [1, 9]: 18 ± 1.6 mmHg
- IOP [1, 10]: 19 ± 1.3 mmHg
- IOP [1, 11]: 20 ± 1.9 mmHg
- IOP [1, 12]: 19 ± 1.7 mmHg
- IOP [1, 13]: 15 ± 2.1 mmHg
- IOP [1, 14]: 16 ± 1.0 mmHg
- IOP [1, 15]: 12 ± 0.8 mmHg
- IOP [1, 16]: 14 ± 2.0 mmHg
- IOP [1, 17]: 16 ± 0.8 mmHg
- IOP [1, 18]: 14 ± 1.3 mmHg
- IOP [1, 19]: 15 ± 1.5 mmHg
- IOP [1, 20]: 18 ± 1.6 mmHg
- IOP [1, 21]: 20 ± 2.0 mmHg
- IOP [1, 22]: 20 ± 2.4 mmHg
- IOP [1, 23]: 14 ± 1.7 mmHg
- IOP [1, 24]: 14 ± 2.0 mmHg
- IOP [1, 25]: 17 ± 1.9 mmHg
- IOP [1, 26]: 17 ± 1.9 mmHg
- Intravenous Dose Needed to Increase MAP 10% (mongrel dogs): 0.01 mg/kg
- Mydriatic Responses, TREATED EYE ([2]; 1% solution): ++ (++ = 2-4 mm change)
- Mydriatic Responses, UNTREATED EYE ([2]; 1% solution): 0
- Mydriatic Responses, TREATED EYE ([2]; 2% solution): +++ (+++ >4 mm change)
- Mydriatic Responses, UNTREATED EYE ([2]; 2% solution): +++ (+++ >4 mm change)
- Pupil Diameter [2, 3]: 7 ± 0.4 mm
- Pupil Diameter [2, 4]: 9 ± 0.4 mm
- Pupil Diameter [2, 5]: 9 ± 0.4 mm
- Pupil Diameter [2, 6]: 9 ± 0.4 mm
- Pupil Diameter [2, 7]: 6 ± 0.4 mm
- Pupil Diameter [2, 8]: 6 ± 0.4 mm
- Pupil Diameter [2, 9]: 6 ± 0.4 mm
- Pupil Diameter [2, 10]: 6 ± 0.4 mm
- Pupil Diameter [2, 11]: 6 ± 0.4 mm
- Pupil Diameter [2, 12]: 6 ± 0.4 mm
- Pupil Diameter [2, 13]: 6 ± 0.4 mm
- Pupil Diameter [2, 14]: 6 ± 0.4 mm
- Pupil Diameter [2, 15]: 12 ± 0.2 mm
- Pupil Diameter [2, 16]: 12 ± 0.2 mm
- Pupil Diameter [2, 17]: 12 ± 0.2 mm
- Pupil Diameter [2, 18]: 12 ± 0.2 mm
- Pupil Diameter [2, 19]: 6 ± 0.2 mm
- Pupil Diameter [2, 20]: 6 ± 0.2 mm
- Pupil Diameter [2, 21]: 12 ± 0.2 mm
- Pupil Diameter [2, 22]: 12 ± 0.2 mm
- Pupil Diameter [2, 23]: 12 ± 0.2 mm
- Pupil Diameter [2, 24]: 12 ± 0.2 mm
- Pupil Diameter [2, 25]: 6 ± 0.2 mm
- Pupil Diameter [2, 26]: 6 ± 0.2 mm
- Mean Decrease in Nasal Airway Pressure (Sprague Dawley rats; 5% of the dose that increased MAP 10%, mean ± SEM): −1.6 ± 0.9 mm water
- Mean Decrease in Nasal Airway Pressure (Sprague Dawley rats; 10% of the dose that increased MAP 10%): −4.8 ± 0.8 mm water
- Mean Decrease in Nasal Airway Pressure (Sprague Dawley rats; 25% of the dose that increased MAP 10%): −12.1 ± 2.4 mm water
- Mean Decrease in Nasal Airway Pressure (Sprague Dawley rats; 50% of the dose that increased MAP 10%): −5.2 ± 1.6 mm water
- Mean decrease in nasal airway pressure, % Change (Sprague Dawley rats; 100% dose i.v., non-histamine-challenged rats): −20.3%
- Nasal airway pressure, Post Drug (Sprague Dawley rats; after 100% dose (dose raising MAP 10%) into jugular vein): 4 ± 0.2 mm H2O
- Nasal airway pressure, Control (Sprague Dawley rats; before drug, non-histamine-challenged rats): 5 ± 0.2 mm H2 O
